In patent US20150057443A1, “Cycloalkyl Amine Compounds” (Prexa Pharmaceuticals, Inc., priority 2013, published 2015):
pKi: −log10 of the molar value. Where two headings read alike, the source gives them in different places.

How the values were obtained:
[1] = biological target: T1, human recombinant NET (Homo sapiens, UniProt P23975); test: NET radioligand binding assay (scintillation proximity, [3H]nisoxetine); details: HEK293 cell membranes expressing human recombinant NET; [3H]nisoxetine; SPA; read-out: NET Ki
T1 construct: membranes)
T1 sequence (P23975 whole entry): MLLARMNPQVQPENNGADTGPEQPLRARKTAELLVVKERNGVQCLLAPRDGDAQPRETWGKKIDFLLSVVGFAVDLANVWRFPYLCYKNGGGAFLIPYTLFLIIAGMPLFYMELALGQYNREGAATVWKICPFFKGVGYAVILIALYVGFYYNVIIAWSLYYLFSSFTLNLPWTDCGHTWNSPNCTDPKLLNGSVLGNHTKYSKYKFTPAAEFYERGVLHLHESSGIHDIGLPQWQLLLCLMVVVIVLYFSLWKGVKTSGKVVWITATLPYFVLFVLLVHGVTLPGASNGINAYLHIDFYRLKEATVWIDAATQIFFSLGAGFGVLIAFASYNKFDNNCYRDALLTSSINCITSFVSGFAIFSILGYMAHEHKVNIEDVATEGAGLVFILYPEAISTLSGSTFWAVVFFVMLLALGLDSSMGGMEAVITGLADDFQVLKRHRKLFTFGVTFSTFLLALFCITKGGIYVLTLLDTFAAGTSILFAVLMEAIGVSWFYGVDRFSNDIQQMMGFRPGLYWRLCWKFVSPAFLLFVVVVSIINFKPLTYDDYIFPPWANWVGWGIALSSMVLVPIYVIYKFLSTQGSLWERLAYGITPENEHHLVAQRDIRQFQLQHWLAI
Protocol: (§1) Affinity of the compounds for monoamine transporters was determined by in vitro radioligand binding assays using cell membrane preparations derived from HEK293 cell lines stably expressing human recombinant DAT, NET or SERT receptor (Suven Life Sciences, Hyderabad, India).
(§2) Stable DAT cell lines were generated following procedures described in Eshelman et al., Molecular Pharmacology 45, 312-316; 1994. Stable NET cell lines were generated following procedures described in Pacholczyk et al., Nature 350, 350-354, 1991 and Galli et al., Journal Exp. Biol. 198, 2197-2212, 1995. Stable SERT cell lines were generated following procedures described in Ramamoorthy et al., Proc Natl Acad Sci USA 90, 2542-246, 1993.
(§3) Cell membranes were obtained from the above-referenced cell lines by manually homogenizing previously frozen cell pellets in Tris-HCl buffer and serially centrifugating and re-extracting the preparations according procedures described in Subbu et al., Journal Pharmacol ExpTher 327, 982-990, 2008.
(§4) A scintillation proximity assay was used to measure receptor binding. Homogenized membrane preparations (final protein concentration 8-15 ug/well) were pre-incubated with WGA PVT SPA beads (0.5 mg/well) for 5 minutes. Binding was initiated by adding high affinity ligands and test compounds (0.1 nM to 10 μM) or reference/positive control ligands to the membrane-bead complex. Plates were incubated for three hours and raw data counts recorded using a liquid scintillation counter (MicroBetaTriLux Counter, Perkin Elmer). Inhibition constants (Ki) were calculated using GraphPad Prism software (version 4.0).
NET receptor binding was determined using procedures described in Mason et al., The Journal of Pharmacology and Experimental Therapeutics 323:720-729, 2007; and Eshleman et al., The Journal of Pharmacology and Experimental Therapeutics289:877-885, 1999. A mixture of [3H]nisoxetine hydrochloride (N-methyl-[3H]nisoxetine, Perkin Elmer) and bead-membrane complex was added to wells containing test compound. Wells containing unlabeled nisoxetine (100 uM, Sigma) were used to define non-specific NET binding. Total radioligand was defined using assay buffer containing 1% DMSO in the presence of [3H]nisoxetine. NET Ki values were calculated using GraphPad Prism software (version 4.0).

[2] = biological target: T2, human recombinant SERT (Homo sapiens, UniProt P31645); test: SERT radioligand binding assay (scintillation proximity, [3H]citalopram); details: HEK293 cell membranes expressing human recombinant SERT; [3H]citalopram; SPA; read-out: SERT Ki
T2 construct: membranes)
T2 sequence (P31645 whole entry): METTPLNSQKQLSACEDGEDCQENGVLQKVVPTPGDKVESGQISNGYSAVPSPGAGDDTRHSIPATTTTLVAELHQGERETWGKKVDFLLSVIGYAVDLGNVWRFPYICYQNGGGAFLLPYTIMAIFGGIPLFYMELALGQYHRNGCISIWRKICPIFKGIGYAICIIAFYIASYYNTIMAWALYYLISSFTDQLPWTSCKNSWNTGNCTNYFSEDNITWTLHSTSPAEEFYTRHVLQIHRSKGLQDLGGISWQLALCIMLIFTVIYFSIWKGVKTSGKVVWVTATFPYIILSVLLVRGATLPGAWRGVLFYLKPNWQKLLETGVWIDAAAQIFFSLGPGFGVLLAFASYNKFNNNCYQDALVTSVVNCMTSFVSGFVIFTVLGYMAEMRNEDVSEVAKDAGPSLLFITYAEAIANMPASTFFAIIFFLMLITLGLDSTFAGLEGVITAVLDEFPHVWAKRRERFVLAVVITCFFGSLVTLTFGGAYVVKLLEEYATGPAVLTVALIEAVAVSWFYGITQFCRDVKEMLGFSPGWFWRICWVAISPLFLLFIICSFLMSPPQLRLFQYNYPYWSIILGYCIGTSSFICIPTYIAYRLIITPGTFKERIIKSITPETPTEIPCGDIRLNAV
Protocol: as §1, §2, §3, §4
SERT receptor binding was determined using procedures described in Owens et al., The Journal of Pharmacology and Experimental Therapeutics 283:1305-1322, 1997. A mixture of [3H]citalopram (N-methyl-[3H]citalopram, Perkin Elmer) and bead-membrane complex was added to wells containing test compound. Non-specific binding was determined using wells containing venlafaxine hydrochloride (100 uM, Sigma). Total radioligand was determined using assay buffer containing 1% DMSO in the presence of [3H]citalopram. SERT Ki values were calculated using GraphPad Prism software (version 4.0).

[3] = biological target: human recombinant DAT (Homo sapiens, UniProt Q01959); test: DAT radioligand binding assay (scintillation proximity, [3H]WIN-35428)
Sequence of human recombinant DAT (Q01959 whole entry): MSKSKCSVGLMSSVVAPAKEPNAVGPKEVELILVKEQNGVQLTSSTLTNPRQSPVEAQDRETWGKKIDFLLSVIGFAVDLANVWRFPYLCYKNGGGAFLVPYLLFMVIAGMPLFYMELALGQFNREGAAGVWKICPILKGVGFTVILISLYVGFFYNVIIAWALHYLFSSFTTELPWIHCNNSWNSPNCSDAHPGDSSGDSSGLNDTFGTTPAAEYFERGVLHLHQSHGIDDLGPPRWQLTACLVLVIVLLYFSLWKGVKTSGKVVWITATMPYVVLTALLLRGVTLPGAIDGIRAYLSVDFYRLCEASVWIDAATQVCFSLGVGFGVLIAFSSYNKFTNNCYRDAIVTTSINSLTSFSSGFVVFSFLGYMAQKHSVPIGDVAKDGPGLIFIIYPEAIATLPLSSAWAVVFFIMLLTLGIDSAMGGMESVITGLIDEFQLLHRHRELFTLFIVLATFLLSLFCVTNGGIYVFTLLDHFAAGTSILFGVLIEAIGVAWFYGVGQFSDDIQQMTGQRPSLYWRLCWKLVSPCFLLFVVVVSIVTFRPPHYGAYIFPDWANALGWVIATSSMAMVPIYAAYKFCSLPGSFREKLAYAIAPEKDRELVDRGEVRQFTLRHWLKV
Protocol: as §1, §2, §3, §4
DAT receptor binding was determined using procedures described in Skolnick et al., European Journal of Pharmacology, 461(2-3):99-104, 2003; and Eshleman et al., The Journal of Pharmacology and Experimental Therapeutics 289:877-885, 1999. A mixture of [3H]WIN-35428 (N-methyl 3H-WIN-35428, Perkin Elmer) and bead-membrane complex was added to wells containing test compound. Wells containing nomifensine maleate ([…], Sigma) were used to define non-specific […] binding. Total radioligand was defined by assay buffer containing 1% DMSO in the presence of [3H]WIN-35428. DAT Ki values were calculated using GraphPad Prism software (version 4.0).

Row | Compound | pKi [1] | pKi [2] | pKi [3] | pKi ([3]; HEK293 cell membranes expressing human recombinant DAT, [3H]WIN-35428, SPA, read-out: DAT Ki)
1 | OC(CN1CCCCCC1)C1(c2ccc(Cl)c(Cl)c2)CCC1 (stereo not drawn) [Compound 16, 1-{2-[1-(3,4-Dichlorophenyl)cyclobutyl]-2-hydroxyethyl}azepan-1-ium chloride] | 6.30 to 7.00 | < 6.30 | 7.00 to 7.96 | –
2 | CCCN(CC)CC(O)C1(c2ccc(Cl)c(Cl)c2)CCC1 (stereo not drawn) [Compound 48, {2-[1-(3,4-Dichlorophenyl)cyclobutyl]-2-hydroxyethyl}(ethyl)propylazanium chloride] | 7.00 to 7.96 | 6.30 to 7.00 | 7.00 to 7.96 | –
3 | CCN(CC(O)C1(c2ccc(Cl)c(Cl)c2)CCC1)C(C)C (stereo not drawn) [Compound 47, {2-[1-(3,4-Dichlorophenyl)cyclobutyl]-2-hydroxyethyl}(ethyl)(propan-2-yl)azanium chloride] | 7.00 to 7.96 | 6.30 to 7.00 | 7.00 to 7.96 | –
4 | OC(CN1CCCCC1)C1(c2cccc(Cl)c2)CCC1 (stereo not drawn) [Compound 12, 1-{2-[1-(3-Chlorophenyl)cyclobutyl]-2-hydroxyethyl}piperidin-1-ium chloride] | < 6.30 | < 6.30 | < 6.30 | –
5 | OC(CN1CC2CC1CO2)C1(c2ccc(Cl)c(Cl)c2)CCC1 (stereo not drawn) [Compound 27, 5-{2-[1-(3,4-Dichlorophenyl)cyclobutyl]-2-hydroxyethyl}-2-oxa-5-azabicyclo[2.2.1]heptan-5-ium chloride] | 6.30 to 7.00 | < 6.30 | 7.00 to 7.96 | –
6 | COC(CN1CCCCC1)C1(c2ccc(Cl)c(Cl)c2)CCC1 (stereo not drawn) [Compound 59, 1-{2-[1-(3,4-dichlorophenyl)cyclobutyl]-2-methoxyethyl}piperidin-1-ium chloride] | < 6.30 | < 6.30 | < 6.30 | –
7 | O=C(CN1CCCCC1)C1(c2ccc(Cl)c(Cl)c2)CCC1 [Compound 67] | < 6.30 | 6.30 to 7.00 | 7.00 to 7.96 | –
8 | CC(O)(CN1CCCCC1)C1(c2ccc(Cl)c(Cl)c2)CCC1 (stereo not drawn) [Compound 71, 1-{2-[1-(3,4-dichlorophenyl)cyclobutyl]-2-hydroxypropyl}piperidin-1-ium chloride] | 6.30 to 7.00 | < 6.30 | 7.00 to 7.96 | –
9 | O=C(CN1CCCCC1)C1(c2ccc(Cl)c(Cl)c2)CCCC1 [Compound 61, 1-{2-[1-(3,4-dichlorophenyl)cyclopentyl]-2-oxoethyl}piperidin-1-ium chloride] | < 6.30 | < 6.30 | 7.00 to 7.96 | –
10 | OC(CN1CCCC(F)C1)C1(c2ccc(Cl)c(Cl)c2)CCC1 (stereo not drawn) [Compound 21, 1-{2-[1-(3,4-Dichlorophenyl)cyclobutyl]-2-hydroxyethyl}-3-fluoropiperidin-1-ium chloride] | 7.00 to 7.96 | < 6.30 | > 8.00 | –
11 | CC(CF)NCC(O)C1(c2ccc(Cl)c(Cl)c2)CCC1 (stereo not drawn) [Compound 29, {2-[1-(3,4-dichlorophenyl)cyclobutyl]-2-hydroxyethyl}(1-fluoropropan-2-yl)azanium chloride] | 6.30 to 7.00 | < 6.30 | 7.00 to 7.96 | –
12 | Clc1ccc(C2(CN3CCCCC3)CCC2)cc1 [Compound 1] | < 6.30 | < 6.30 | 6.30 to 7.00 | –
13 | OC(CN1CCC(F)(F)CC1)C1(c2ccc(Cl)c(Cl)c2)CCC1 (stereo not drawn) [Compound 24, 1-{2-[1-(3,4-Dichlorophenyl)cyclobutyl]-2-hydroxyethyl}-4,4-difluoropiperidin-1-ium chloride] | < 6.30 | 6.30 to 7.00 | > 8.00 | –
14 | OC(CN1CC2CC(F)C1C2)C1(c2ccc(Cl)c(Cl)c2)CCC1 (stereo not drawn) [Compound 39, 2-{2-[1-(3,4-Dichlorophenyl)cyclobutyl]-2-hydroxyethyl}-6-fluoro-2-azabicyclo[2.2.1]heptan-2-ium chloride] | 6.30 to 7.00 | < 6.30 | 6.30 to 7.00 | –
15 | CC1(C)COCCN1CC(O)C1(c2ccc(Cl)c(Cl)c2)CCC1 (stereo not drawn) [Compound 31, 4-{2-[1-(3,4-dichlorophenyl)cyclobutyl]-2-hydroxyethyl}-3,3-dimethylmorpholin-4-ium chloride] | 7.00 to 7.96 | 7.00 to 7.96 | > 8.00 | –
16 | O[C@H](CN1CCCCC1)C1(c2ccc(Cl)c(Cl)c2)CCC1 [Compound 13, 1-[(2S)-2-[1-(3,4-dichlorophenyl)cyclobutyl]-2-hydroxyethyl]piperidin-1-ium chloride] | 7.00 to 7.96 | < 6.30 | 7.00 to 7.96 | –
17 | O=C(CN1CCCCC1)C1(c2cccc(Cl)c2)CCC1 [Compound 69] | < 6.30 | < 6.30 | < 6.30 | –
18 | OC(CN1CCCC1)C1(c2ccc(Cl)c(Cl)c2)CCC1 (stereo not drawn) [Compound 17, 1-{2-[1-(3,4-Dichlorophenyl)cyclobutyl]-2-hydroxyethyl}pyrrolidin-1-ium chloride] | 6.30 to 7.00 | < 6.30 | 7.00 to 7.96 | –
19 | OC(CN1CCCCC1)C1(c2ccc3ccccc3c2)CCC1 (stereo not drawn) [Compound 15, 1-{2-hydroxy-2-[1-(naphthalen-2-yl)cyclobutyl]ethyl}piperidin-1-ium chloride] | 7.00 to 7.96 | 6.30 to 7.00 | 7.00 to 7.96 | –
20 | O=C(CN1CCCCC1)C1(c2ccccc2)CCC1 [Compound 68, 1-[2-oxo-2-(1-phenylcyclobutyl)ethyl]piperidin-1-ium chloride] | < 6.30 | < 6.30 | < 6.30 | –
21 | COC1CCCN(CC(O)C2(c3ccc(Cl)c(Cl)c3)CCC2)C1 (stereo not drawn) [Compound 33, 1-{2-[1-(3,4-Dichlorophenyl)cyclobutyl]-2-hydroxyethyl}-3-methoxypiperidin-1-ium chloride] | 6.30 to 7.00 | < 6.30 | > 8.00 | –
22 | N#CC1CCCN(CC(O)C2(c3ccc(Cl)c(Cl)c3)CCC2)C1 (stereo not drawn) [Compound 32, 1-{2-[1-(3,4-dichlorophenyl)cyclobutyl]-2-hydroxyethyl}piperidine-3-carbonitrile] | 6.30 to 7.00 | 7.00 to 7.96 | > 8.00 | –
23 | OC(CN1CCCC(F)(F)C1)C1(c2ccc(Cl)c(Cl)c2)CCC1 (stereo not drawn) [Compound 22, 1-{2-[1-(3,4-Dichlorophenyl)cyclobutyl]-2-hydroxyethyl}-3,3-difluoropiperidin-1-ium chloride] | 6.30 to 7.00 | < 6.30 | > 8.00 | –
24 | OC(CN1CCCCC1)C1(c2ccc(Cl)c(Cl)c2)CCC1 (stereo not drawn) [Compound 7, 1-{2-[1-(3,4-Dichlorophenyl)cyclobutyl]-2-hydroxyethyl}piperidin-1-ium chloride] | 6.30 to 7.00 | < 6.30 | 7.00 to 7.96 | –
25 | OC(CNC1CCC1)C1(c2ccc(Cl)c(Cl)c2)CCC1 (stereo not drawn) [Compound 36, N-{2-[1-(3,4-Dichlorophenyl)cyclobutyl]-2-hydroxyethyl}cyclobutanaminium chloride] | 6.30 to 7.00 | 6.30 to 7.00 | 7.00 to 7.96 | –
26 | CCN(CC)CC(O)C1(c2ccc(Cl)c(Cl)c2)CCC1 (stereo not drawn) [Compound 18, {2-[1-(3,4-Dichlorophenyl)cyclobutyl]-2-hydroxyethyl}diethylazanium chloride] | 7.00 to 7.96 | < 6.30 | 7.00 to 7.96 | –
27 | 1-{2-[1-(3-Chlorophenyl)cyclobutyl]-2-hydroxyethyl}-3,3-dimethylpiperidin-1-ium chloride [Compound 11] | < 6.30 | < 6.30 | – | < 6.30
28 | CC(F)C(C)NCC(O)C1(c2ccc(Cl)c(Cl)c2)CCC1 (stereo not drawn) [Compound 42, {2-[1-(3,4-dichlorophenyl)cyclobutyl]-2-hydroxyethyl}(3-fluorobutan-2-yl)azanium chloride] | 6.30 to 7.00 | 6.30 to 7.00 | 7.00 to 7.96 | –
